These results are taken from patent US9115122B2, “Non-ATP dependent inhibitors of extracellular signal-regulated kinase (ERK)” (UNIVERSITY OF MARYLAND, BALTIMORE, priority 2012, dated 2015).

One may read the IC50 as the concentration needed to halve the response being measured. What is called GI50 is the concentration that inhibits growth by half. Read a high GI50 as lower sensitivity of the cells.

Each structure is given as a SMILES string.

Series [1] concerns the target ERK2 T157A (Rattus norvegicus (Rat), UniProt P63086, T157A). The series can be described thus: Fluorescence quenching (FQ) binding affinity. The following applies: read-out: KD T157A (Site1).
Series [2] concerns the target ERK2 T157A/D319N (Rattus norvegicus (Rat), UniProt P63086, D319N/T157A). The experiment in a line: Fluorescence quenching (FQ) binding affinity. The following applies: read-out: KD T157A/D319N (Site1).
Series [3] concerns activator protein-1 (AP-1) promoter. The experiment in a line: AP-1 promoter luciferase assay, HeLa cells (Example 4). Particulars: Homo sapiens, EGF 25 ng/mL, read-out: estimated IC50 AP-1 promoter activity. In kind it is cell-based. As for the experimental part: (§1) HeLa cells were seeded in 24-well plates (4×10^4 cells/well) and incubated 18 hours prior to achieve ˜60-70% confluent. Cells were transfected with activator protein-1 (pAP1(PMA)-TA-Luc; Clontech) or the serum response element (pGL4.33-SRE; Promega) luciferase reporter plasmids (250 ng/well) using Lipofectamine™ (Invitrogen). After 16 hours, cells were treated with increasing amount of compounds as indicated for 20 minutes, followed by stimulation with EGF (25 ng/mL) for 4.5 hr. The luciferase activity in the cell extracts was determined with a Dual Luciferase Assay System (Promega) according to the manufacturer's instructions. Luciferase activities were monitored with a Lumat LB 9507 luminometer (Berthold Technology) and data were normalized to the amount of protein in each sample.

The test system of series [4] is serum response element (SRE). The series can be described thus: SRE promoter luciferase assay, HeLa cells (Example 4). In kind it is cell-based. The following applies: Homo sapiens, EGF 25 ng/mL, read-out: estimated IC50 SRE promoter activity. On the procedure: as §1
Series [5] relates to HeLa cells. The series can be described thus: Dose-response growth inhibition (GI50) of select compounds. In kind it is cell-based. Particulars: Homo sapiens, HeLa.
Series [6] relates to HeLa cervical carcinoma cells. The series can be described thus: Colony formation assay. In kind it is cell-based. The following applies: Homo sapiens, read-out: IC50 growth inhibition, colony formation, HeLa. On the procedure:
(§2) We have successfully used computer-aided drug design (CADD) to search for low-molecular-weight docking domain inhibitors of ERK. One of the compounds, identified as 76, binds ERK2 with a Kd value of 5 μM and blocks phosphorylation of the downstream ERK targets RSK-1 and Elk-1. Moreover, 76 inhibited growth of HeLa cervical carcinoma and A549 lung carcinoma cells as assessed by colony formation assay in a dose dependent manner with IC50 values of ˜20 μM.

The subject of series [7] is A549 lung carcinoma cells. The series can be described thus: Colony formation assay. In kind it is cell-based. Particulars: Homo sapiens, read-out: IC50 growth inhibition, colony formation, A549. As for the experimental part: as §2
In series [8] the test system is A375 melanoma cells. The series can be described thus: Dose-response growth inhibition (GI50) of select compounds. The format is cell-based. The following applies: Homo sapiens, A-375, 48 h, two days. A digest of the protocol:
(§3)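 Cells were seeded at 5,000 per well, incubated overnight, then exposed to varying compound doses for two days. Viability was measured by Cell Titer-Blue (2 h, 37° C, fluorescence 555/585 nm) as percent of vehicle control, averaged over three experiments, and GI50 was derived from dose-response curves.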

The subject of series [9] is SK-MEL-28 melanoma cells. The description is as above. In kind it is cell-based. The following applies: Homo sapiens, SK-MEL-28, 48 h, two days. An outline of the steps: as §3
Series [10] concerns RPMI7951 melanoma cells. Described as above. The following applies: Homo sapiens, RPMI-7951, 48 h, two days. The format is cell-based. A digest of the protocol:
as §3

Series [11] deals with ERK2 D319N (Rattus norvegicus (Rat), UniProt P63086, D319N). The experiment in a line: Fluorescence quenching (FQ) binding affinity. Particulars: read-out: KD D319N (Site1).
Sequence of ERK2 D319N (P63086 whole entry D319N): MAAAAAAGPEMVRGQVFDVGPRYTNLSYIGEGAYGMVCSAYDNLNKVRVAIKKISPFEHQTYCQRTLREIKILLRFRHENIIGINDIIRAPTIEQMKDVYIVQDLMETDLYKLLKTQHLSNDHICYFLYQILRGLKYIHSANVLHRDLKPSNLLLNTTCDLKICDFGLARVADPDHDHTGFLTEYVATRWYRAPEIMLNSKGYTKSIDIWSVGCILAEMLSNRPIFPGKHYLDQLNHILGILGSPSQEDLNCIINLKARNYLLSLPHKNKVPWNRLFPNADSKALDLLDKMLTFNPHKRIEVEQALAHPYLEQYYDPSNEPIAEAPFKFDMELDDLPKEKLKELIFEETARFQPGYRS
Series [12] concerns Jurkat cells. The experiment in a line: Dose-response growth inhibition (GI50) of select compounds. In kind it is cell-based. The following applies: Homo sapiens, Jurkat.
Series [13] has as its target ERK2 wild type (WT) (Rattus norvegicus (Rat), UniProt P63086). The series can be described thus: Fluorescence quenching (FQ) binding affinity. Particulars: 1 nM to 20 μM test compound.
For series [14], the system named is HeLa cervical carcinoma cells. The experiment in a line: Cell proliferation WST-1 assay, single dose (Example 4). The format is cell-based. The following applies: 100 μM, 48 hours. A digest of the protocol:
(§4)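 Tetrazolium (WST-1) read-out of proliferation, values relative to DMSO-only wells; cells treated for 48 h after 16-20 h recovery.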
On the technique in general: Formazan colour is commonly taken as a measure of viable cells.

Series [15] relates to Jurkat T-cell leukemia cells. The description is as above. In kind it is cell-based. The following applies: 100 μM, 48 hours. An outline of the steps:
as §4

The subject of series [16] is A375 melanoma cells. Described as above. The format is cell-based. The following applies: 100 μM, 48 hours. An outline of the steps: as §4
For series [17], the system named is HL-60 leukemic cells. The description is as above. Particulars: 100 μM, 48 hours. In kind it is cell-based. A digest of the protocol:
as §4

The test system of series [18] is SK-MEL-28 melanoma cells. The description is as above. The format is cell-based. The following applies: 100 μM, 48 hours. A digest of the protocol:
as §4

Series [19] concerns RPMI-7951 melanoma cells. The series is described as above. The format is cell-based. The following applies: 100 μM, 48 hours. An outline of the steps:
as §4

Sequence of ERK2 wild type (WT) (P63086 whole entry): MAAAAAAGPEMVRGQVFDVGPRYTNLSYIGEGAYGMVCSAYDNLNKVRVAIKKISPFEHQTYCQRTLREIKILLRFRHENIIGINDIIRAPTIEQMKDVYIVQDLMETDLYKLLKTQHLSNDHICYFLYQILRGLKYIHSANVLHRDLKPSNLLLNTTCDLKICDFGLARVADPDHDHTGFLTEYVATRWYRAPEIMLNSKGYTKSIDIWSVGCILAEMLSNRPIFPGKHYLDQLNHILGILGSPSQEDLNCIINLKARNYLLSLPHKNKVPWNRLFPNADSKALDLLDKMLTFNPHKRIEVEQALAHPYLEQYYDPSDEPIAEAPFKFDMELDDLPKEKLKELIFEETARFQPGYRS
Sequence of ERK2 T157A/D319N (P63086 whole entry T157A/D319N): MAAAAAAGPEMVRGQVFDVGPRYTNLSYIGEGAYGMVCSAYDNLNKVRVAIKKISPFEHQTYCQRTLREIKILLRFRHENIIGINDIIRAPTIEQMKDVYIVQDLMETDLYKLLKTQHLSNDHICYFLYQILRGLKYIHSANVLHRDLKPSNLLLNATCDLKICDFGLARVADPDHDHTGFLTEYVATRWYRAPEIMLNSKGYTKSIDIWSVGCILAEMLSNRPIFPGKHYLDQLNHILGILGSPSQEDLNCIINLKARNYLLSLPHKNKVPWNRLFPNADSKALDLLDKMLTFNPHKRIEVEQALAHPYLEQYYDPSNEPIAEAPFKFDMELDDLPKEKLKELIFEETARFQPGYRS
Sequence of ERK2 T157A (P63086 whole entry T157A): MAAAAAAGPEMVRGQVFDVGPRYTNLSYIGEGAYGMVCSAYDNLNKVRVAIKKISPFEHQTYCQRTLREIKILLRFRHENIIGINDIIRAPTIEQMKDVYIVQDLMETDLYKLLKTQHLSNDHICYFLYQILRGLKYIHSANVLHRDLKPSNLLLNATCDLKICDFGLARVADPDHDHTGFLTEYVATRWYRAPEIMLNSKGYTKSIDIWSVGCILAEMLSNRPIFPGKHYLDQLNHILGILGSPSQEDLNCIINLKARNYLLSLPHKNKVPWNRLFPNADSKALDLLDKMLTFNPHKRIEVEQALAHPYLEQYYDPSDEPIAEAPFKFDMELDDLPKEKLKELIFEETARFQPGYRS

For `CCOc1ccc(/C=C2\SC(=O)N(CCN)C2=O)cc1` [Compound 76, (Z)-3-(2-aminoethyl)-5-(4-ethoxybenzylidene)thiazolidine-2,4-dione], the Kd in series [1] came out at 6.1 ± 0.6 µM; in series [2], 6.4 ± 0.3 µM; in [11], 7 ± 1 µM; in series [13], 5 µM. For the same molecule, the IC50 in [3] was at most 5 µM; in series [4], at most 5 µM; in [6] it was around 20 µM; in [7] it was around 20 µM. Besides, the GI50 in series [5] is above 100 µM; in series [8], 29 µM; in series [9] it was 34 µM; in [10] it was 46 µM; in series [12] it was above 100 µM. The “Cell Viability (% of Vehicle) HeLa” value in [14] is recorded as 53 ± 3 % of Vehicle. Also, the “Cell Viability (% of Vehicle) Jurkat” value in series [15] was 59 ± 5 % of Vehicle. For the same molecule, the “Cell Viability (% of Vehicle) A375” value in [16] is listed as 2.1 ± 2 % of Vehicle. For the same molecule, in series [17], the “Cell Viability (% of Vehicle) HL-60” value is recorded as 4.4 ± 1 % of Vehicle. Further, the “Cell Viability (% of Vehicle) SK-MEL-28” value in series [18] is 11 ± 7 % of Vehicle. In series [19], the “Cell Viability (% of Vehicle) RPMI-7951” value is given as 0.3 ± 0.02 % of Vehicle.
